# Source: patent EP1431294A1, “VASCULAR WALL-SELECTIVE ACAT INHIBITOR” (Kowa Company Ltd., priority 2001, dated 2003)
# Tests used:
# [1] = tested on: lipid-loaded model of F1B hamster; assay: Arteriosclerotic model animal test (lipid-loaded F1B hamster); conditions: for CE/FC Adrenal Gland / CE/FC Lipid Accumulation to Artery / CE/FC Liver / CE/FC Small Intestine: ratio to control (1.0)
# Method: Male hamsters of a Bio F1B strain purchased from Nippon Charles River were randomly grouped so that each group comprised six. As from eight weeks age, they were loaded with a high-fat feed (0.3% of cholesterol and 10% of coconut oil) for ten weeks while the drug was administered by mixing with the feed. After ten weeks, blood was collected and cholesterol in plasma was measured. Further, arterywas excised after fixingbyperfusion with a 10% formalin solution. This was incised, lipid which was accumulated in the artery was stained with Oil Red O and the stained area was measured using an image analyzer.
# A high-fat feed (0.3% of cholesterol and 10% of coconut oil) was prepared by way of compounding ratio of cholesterol : coconut oil : feed (CE-2) = 0.03:1:9. Incidentally, a high-fat feed was given to the control group and the administered period was 10 weeks.
# Hamster under a non-fasted state was anesthetized, subj ected to an abdominal section to expose the abdominal artery and about 2.5 mL of blood were collected. The collected blood was centrifuged at 3, 000 rpm for 15 minutes to collect the plasma and then total cholesterol (TC) and free cholesterol (FC) in plasma were determined by a Cholesterol E-Test Wako (a cholesterol oxidase DAOS method) and a Free Cholesterol E-Test Wako (a cholesterol oxidase DAOS method), respectively.
# About 500 mg of liver, small intestine and adrenal body were excised and washed with a physiological saline solution and lipid concentration in the tissues was measured. In the measurement, 10 mL of chloroform : methanol (2:1) as an extracting solution for lipid in the tissue were placed in the liver and the small intestine, homogenized at 3,000 rpm using a Polytron Homogenizer PT 3100 and allowed to stand at 4°C for one night. The extract was centrifuged at 1,500 rpm for 15 minutes, 0.2 mL of the supernatant liquid was evaporated to dryness using a vacuum pump, the residue was dissolved in 50 µL of isopropanol and each lipid was subjected to the same kits whereupon TC and FC were quantified. With regard to the adrenal body, it was finely cut using scissors and 0.5 mL of chloroform : methanol (2:1) was added thereto followed by being allowed to stand at 4°C for one night. That was centrifuged at 1,500 rpm for 15 minutes, 0.2 mL of the supernatant liquid was evaporated to dryness using a vacuum pump, the residue was dissolved in 50 µL of isopropanol and each lipid was subjected to the same kits whereupon TC and FC were quantified.
# With regard to the total cholesterol (TC) in plasma in the group to which the drug was administered, the relative ratio to TC in the control group was used as an indicator while, with regard to the tissue, difference between TC and FC was defined as CE (cholesterol ester) and the lipid-constituting ratio, CE/FC, in each organ was determined whereupon their relative ratio to each control was calculated and used as an indicator. Thus, in those indicators, the control group was defined as 100% and the calculation using the following formula was carried out so as to use a plasma TC lowering action by ACAT inhibitory action to liver and small intestine of the group to which the drug was administered as an indicator and also to use the variation of CE/FC ratio by an ACAT inhibitory action to each organ as an indicator. Indicator (%) for total cholesterol in plasma = [(TC of drug-administered group)/(TC of the control group)] × 100 [formula] Indicator (%) for lipid constituting ratio in each organ = [(CE/FC of drug-administered group)/(CE/FC of the control group)] × 100 [formula]
# After collection of the blood, a 18-G injection needle was inserted into apex and perfused with a physiological saline solution (120 mmHg) for about 5minutes. It was further perfused with a 10% neutral formalin buffer (120 mmHg) for about 5 minutes. Bulbar and thoracic artery was excised and fixed in a 10% formalin buffer.
# [2] = tested on: ACAT; assay: ACAT inhibitory activity test in HepG2 cells; assay type: cell-based; conditions: 25-hydroxycholesterol 10 µg/mL, 18 hours, cholesterol ester per protein
# Method: (§1) J774 cells or HepG2 cells were sown on a 24-well plate and incubation was carried out at 37°C for 24 hours in a 5% CO2 incubator using a Dulbecco's modified Eagle's medium for J774 cells and an Eagle's minimum essential medium for HepG2 cells (where both media contained 10% of fetal bovine serum). […] The medium was taken out, washed with PBS twice, extracted with 1.5 mL of hexane-isopropanol (3:2) and concentrated to dryness. The extract was dissolved in isopropanol containing 0.2 mL of 10% Triton X-100 and then total cholesterol (TC) and free cholesterol (FC) were determined by a Cholesterol E Test Wako (Wako Pure Chemical) and a Free Cholesterol E Test Wako (Wako Pure Chemical), respectively. The residue of the cell after extraction was solubilized with 0.25 mL of 2N NaOH at 37°C for 30 minutes and protein was determined by a BCA Protein Assay Reagent (Pierce). From the differencebetween TC and FC, amount of cholesterolester per protein was calculated and, from the comparative calculation with the control, IC50 value was determined.
# [3] = Oral absorption test in rats under a fed condition (plasma concentration); assay type: in vivo; conditions: compared with the compound of Example 1; rats, 30 mg/kg
# Method: A solution of the compound of the present invention (dissolved in a mixture of water : PEG 400 = 1:4) or a suspension in 0.5% methyl cellulose (MC) was compulsorily administered per os at. the dose of 30 mg/kg to three rats under a fed condition. Blood after the administration was periodically collected and its concentration in plasma was measured.
# The organic layer (upper layer) was collected, the solvent was evaporated in a nitrogen stream, the residue was dissolved in 0.2 mL of a mobile phase (refer to the following) and 80 µL thereof were measured under the following analytical conditions.
# The organic layer was collected, the solvent was evaporated in a nitrogen stream, the residue was dissolved in 0.2 mL of a mobile phase (refer to the following) and 80 µL thereof were measured under the following condition for high-performance liquid chromatography. Condition for detection: • (Detector: Single-stage quadrupole mass spectrometer • Ionization method: Atmospheric pressure chemical ionization method • Temperature of nebulizer: 475°C • Corona voltage: 3 kV • Monitoring ion: m/z 569 (hydrogen addition ion of the compound of Example 78), 549 (hydrogen addition ion of the compound of Example 85)) Condition for separation: • (Column: Symmetry RP8 manufactured by Waters (3.0 mmφ × 150 mm) • Temperature of column: 45°C • Mobile phase: a solution where 0.1% ammonium formate (pH 4)/methanol/acetonitrile are mixed in […] • Flow rate: 0.8 mL/min)
# To 150 µL of plasma were added a 0.1 mol/L aqueous solution of sodium hydroxide and 0.2 mL of an analogous compound (500 ng/mL of the compound of Example 28 of the Japanese Patent Application No. 8/158,743, i.e. 8-(benzimidazol-2-ylthio)-N-(2,6-diisopropylphenyl)octanamide as an internal standard, stirred and extracted with 6 mL of an isopropanol/hexane (5: 95) solution. The organic layer was collected, the solvent was evaporated in a nitrogen stream, the residue was dissolved in 0.2 mL of a mobile phase (refer to the following) and 80 µL thereof were measured under the following condition for high-performance liquid chromatography.
# [4] = as above; assay type: in vivo; conditions: rat, 30 mg/kg
# [5] = target: T1, ACAT (Mus musculus, UniProt Q61263); assay: ACAT inhibitory activity test in J774 cells (anti-foaming action); assay type: cell-based; conditions: for IC50: J774 cells, 25-hydroxycholesterol 10 µg/mL, 18 hours, cholesterol ester per protein
# T1 construct: J774 cells or HepG2 cells were sown on a 24-well plate; endogenous in cells; host or cells: J774 cells
# T1 sequence (Q61263 1-540): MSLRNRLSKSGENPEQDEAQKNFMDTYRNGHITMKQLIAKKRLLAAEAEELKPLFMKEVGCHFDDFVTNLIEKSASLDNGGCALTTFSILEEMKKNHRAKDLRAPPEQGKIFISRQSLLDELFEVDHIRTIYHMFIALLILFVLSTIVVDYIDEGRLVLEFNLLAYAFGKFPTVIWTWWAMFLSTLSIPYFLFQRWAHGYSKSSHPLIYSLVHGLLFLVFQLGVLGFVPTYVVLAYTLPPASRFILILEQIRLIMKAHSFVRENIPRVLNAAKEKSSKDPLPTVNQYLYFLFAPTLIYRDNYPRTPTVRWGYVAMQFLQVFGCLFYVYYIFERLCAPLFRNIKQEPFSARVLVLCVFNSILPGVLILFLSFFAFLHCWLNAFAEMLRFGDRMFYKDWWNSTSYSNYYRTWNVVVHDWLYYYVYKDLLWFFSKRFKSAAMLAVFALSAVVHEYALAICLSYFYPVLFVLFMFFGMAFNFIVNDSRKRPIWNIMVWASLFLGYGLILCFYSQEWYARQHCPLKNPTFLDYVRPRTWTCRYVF
# Method: as §1
# [6] = dose 10 mg/kg in feed, 10 weeks
# [7] = dose 30 mg/kg in feed, 10 weeks
smiles,measurement,setting,value
"CSc1cc(C)nc(SC)c1NC(=O)CN1CCN(CCSc2nc3ccccc3o2)CC1 [Example 24, N-[2,4-bis (methylthio) -6-methyl-3-pyridyl]-2-[4-[2-(benzoxazol-2-ylthio)ethyl]-piperazin-1-yl]acetamide]",dose from which suppression of lipid accumulation was effective,"[1]; F1B hamsters, drug in high-fat feed, 10 weeks",≥ 3 mg/kg
same,plasma cholesterol at doses effective in suppression of lipid accumulation,"[1]; F1B hamsters, total cholesterol in plasma relative to control, Dunnett's test",accompanied by a significant decrease of plasma cholesterol
same,CE/FC Adrenal Gland,"[1]; dose 1 mg/kg in feed, 10 weeks",0.6
same,CE/FC Lipid Accumulation to Artery,"[1]; dose 1 mg/kg in feed, 10 weeks",0.91
same,CE/FC Liver,"[1]; dose 1 mg/kg in feed, 10 weeks",0.89
same,CE/FC Small Intestine,"[1]; dose 1 mg/kg in feed, 10 weeks",0.79
same,CE/FC Adrenal Gland,"[1]; dose 3 mg/kg in feed, 10 weeks",0.34
same,CE/FC Lipid Accumulation to Artery,"[1]; dose 3 mg/kg in feed, 10 weeks",0.37
same,CE/FC Liver,"[1]; dose 3 mg/kg in feed, 10 weeks",0.36
same,CE/FC Small Intestine,"[1]; dose 3 mg/kg in feed, 10 weeks",0.45
same,CE/FC Adrenal Gland,[1]; [6],0.11
same,CE/FC Lipid Accumulation to Artery,[1]; [6],0.32
same,CE/FC Liver,[1]; [6],0.16
same,CE/FC Small Intestine,[1]; [6],0.21
same,CE/FC Adrenal Gland,[1]; [7],0.11
same,CE/FC Lipid Accumulation to Artery,[1]; [7],0.28
same,CE/FC Liver,[1]; [7],0.09
same,CE/FC Small Intestine,[1]; [7],0.13
"CC(C)c1cc(O)cc(C(C)C)c1NC(=O)CN1CCN(CCSc2nc3ccccc3o2)CC1 [Example 72, 2-[4-[2-(benzoxazol-2-ylthio)ethyl]piperazin-1-yl]-N-(2,6-diisopropyl-4-hydroxyphenyl) acetamide]",IC50,[2],780 nM
same,improving effect in oral absorption in terms of Cmax value,[3],about 4.3 fold
same,AUC(0-inf),[4]; medium 0.05N (Aq HCl),1100 ng·h/mL
same,Cmax,[4]; medium 0.05N (Aq HCl),470 ng/mL
same,IC50,[5],130 nM
"COc1cc(C(C)C)c(NC(=O)CN2CCN(CCSc3nc4ccccc4o3)CC2)c(C(C)C)c1 [Example 75, 2-[4-[2-(benzoxazol-2-ylthio)ethyl]piperazin-1-yl]-N-(2,6-diisopropyl-4-methoxyphenyl)acetamide]",IC50,[2],10000 nM
same,macrophage selectivity (IC50 (HepG2)/IC50 (J774)),[5],not less than 96 fold
same,IC50,[5],100 nM
"CCOCCOc1cc(C(C)C)c(NC(=O)CN2CCN(CCSc3nc4ccccc4o3)CC2)c(C(C)C)c1 [Example 78, 2-[4-[2-(benzoxazol-2-ylthio)ethyl]piperazin-1-yl]-N-[2,6-diisopropyl-4-(2-ethoxyethyl)oxyphenyl]acetamide]",AUC(0-inf),[4]; medium PEG 400:DMSO = 5:1,29.8 ng·h/mL
same,Cmax,[4]; medium PEG 400:DMSO = 5:1,14.8 ng/mL
same,IC50,[5],14 nM
"CC(C)c1cccc(C(C)C)c1NC(=O)CN1CCN(CCSc2nc3cccc(C(F)(F)F)c3o2)CC1 [Example 85, 2-[4-[2-(7-trifluoromethylbenzoxazol-2-ylthio)ethyl]piperazin-1-yl]-N-(2,6-diisopropylphenyl)acetamide]",IC50,[2],680 nM
same,AUC(0-inf),[4]; medium PEG 400,71.8 ng·h/mL
same,Cmax,[4]; medium PEG 400,17.6 ng/mL
same,IC50,[5],19 nM
